Counter-ions that a name gives are not always drawn.
Key:
[1] = system: Salmonella typhimurium TA100; assay: Bacterial reverse mutation test (Ames), strain TA100; format: cell-based; conditions: positive control tested singular
Procedure: (§1) The reverse mutation test was performed to determine the potential of BondLynx and/or its metabolites to induce reverse mutations at the histidine locus of Salmonella typhimurium.[26],[27] The test employs strains of Salmonella typhimurium carrying mutations in the genes involved in histidine production, such that they are only able to grow in histidine supplemented culture media. Upon exposure to mutagenic materials, these mutations may be reversed, thereby restoring the ability to grow in histidine-free media. When grown in the presence of the test compound on media with a small amount of histidine, tester strains grow briefly to allow the opportunity for mutation, followed by proliferation of revertant colonies upon depletion of the provided histidine. Thus, the number of revertant colonies following incubation is indicative of the ability of the test compound to induce mutations.
(§2) Tests were performed on two strains of the bacteria (TA98 and TA100) in the absence and presence of an exogenous mammalian metabolic activation system (5% v/v S9). Positive controls and BondLynx were suspended in dimethyl sulfoxide (DMSO) for testing, and DMSO served as the vehicle control. Positive controls consisted of 2-nitrofluorene (10 μg/plate) for the TA98 strain without S9, methyl mesylate (650 μg/plate) for the TA100 strain without S9, and 2-aminoanthracene for both strains with S9 (1 μg/plate for TA98 and 5 μg/plate for TA100). Eight concentrations of BondLynx (1.7, 5.4, 17, 52, 164, 512, 1600 and 5000 μg/plate) were tested in triplicate. The vehicle control was tested in triplicate and the positive controls were tested singular.
(§3) Test solutions were prepared by pre-incubating .1 mL fresh bacterial culture (10^9 cells/mL), .1 mL of a BondLynx dilution or control solution, and .5 mL of S9 mix or .1 M phosphate buffer for 30 min before adding to 3 mL of molten (45 ± 2°C) top agar. After mixing in a vortex, agar solutions were poured onto selective agar plates. Upon solidification, the prepared plates were inverted and incubated at 37.0 ± 1.0°C for 48 ± 4 h. Following incubation, revertant colonies were counted with a Sorcerer Colony Counter. The condition of the bacterial background lawn was evaluated macroscopically and/or microscopically using a dissecting microscope when considered necessary.

[2] = system: Balb/c 3T3 fibroblasts (clone 31); assay: 3T3 Neutral Red uptake cytotoxicity and phototoxicity assay; conditions: for Corrected Mean OD540: 8 wells; for Photo Irritation Factor (PIF): non-irradiated IC50 divided by irradiated IC50
Procedure: (§4) The 3T3 Neutral Red uptake assay was used to evaluate the phototoxicity of BondLynx. The NRU assay makes use of Neutral Red dye, a weak cationic dye that penetrates the cell membrane by non-ionic passive diffusion and accumulates in lysosomes. Cytotoxicity of the test material is evaluated by measuring the OD540 to assess the uptake of Neutral Red dye.[28],[29] […] By measuring cytotoxicity in the absence vs presence of UV and visible light, the phototoxicity of the test material can be determined.[30],[31]
(§5) Cells were routinely trypsinized and passaged, at least once weekly, with a split ratio 1:3 to 1:4 to achieve a near confluent culture.
(§6) Stock solutions of both controls were freshly prepared on the day of testing. The vehicle control was 1% DMSO in EBSS for the positive control, EBSS for the negative control, and .5% ethanol in EBSS for BondLynx. BondLynx was dissolved in ethanol for testing. […] All controls and BondLynx were handled in the dark and tested in 8-fold.
(§7) In preparation for testing, cultures of 3T3 fibroblasts were trypsinized and resuspended in culture medium. […] A total of six plates were prepared in this manner – two each for the positive control, the negative control, and BondLynx. Following incubation, the cell culture medium was removed, and the wells washed with DPBS (Dulbecco’s phosphate-buffered saline). A 200 μL aliquot of each dilution of the test compound (BondLynx or a control) was added the first eight columns, and the appropriate vehicle control was added to the last four columns. All plates were incubated an additional 60 min before irradiating one plate for each test compound (+Irr) in a solar simulator with a WG320 nm filter for 22 min (equivalent to 5 J/cm^2 UV-A), while the second plate for each test compound (–Irr) was kept in the dark at room temperature. Subsequently, the test solutions were removed from the plates, and the cells were washed once with DPBS and suspended in 200 μL of supplemented DMEM to incubate for an additional 20-24 h.
(§8) Immediately following incubation, the confluency of each plate was visually assessed, and the culture medium was replaced with 100 μL of Neutral Red dye (50 μg/mL). The plates were incubated another 3.5 h before removing the dye, washing with 150 μL of DPBS, and shaking for 20-40 min in 150 μL Neutral Red destain solution (ethanol:acetic acid:distilled water, 50:1:49). The optical density at 540 nm was measured for each well and corrected by subtracting the appropriate blank.

[3] = system: EPISKIN Small Model (human epidermis model); assay: In vitro skin irritation test, MTT viability; format: cell-based; conditions: 15 min exposure, 42 h post-incubation
Procedure: Tests were performed in triplicate. […] Following exposure, samples were rinsed with phosphate buffered saline until no test item remain, dried carefully, and placed in a new 2 mL well with pre-warmed Maintenance Medium to incubate for 42 h. After incubation, cell culture inserts were dried carefully, transferred into a 12-well plate prefilled with 2 mL MTT in phosphate buffered saline (.3 mg/mL), and incubated for 3 h. Tissue samples were then dried, and a biopsy punch was taken. The epidermis was separated from the collagen matrix, and both were extracted with 500 μL isopropanol and stored for 70 h refrigerated. The amount of extracted formazan was measured in duplicate for each sample by the OD570.

[4] = system: Salmonella typhimurium TA98; assay: Bacterial reverse mutation test (Ames), strain TA98; format: cell-based; conditions: positive control tested singular
Procedure: as §1, §2, §3

[5] = 3T3 Neutral Red uptake cytotoxicity and phototoxicity assay; conditions: mouse, Viability (%)
Procedure: as §4, §5, §6, §7, §8

COS(C)(=O)=O [Methyl mesylate, methyl mesylate, reference compound]
Revertant Colonies (Without S9) ([1]; TA100, without S9, 650 μg/plate): 646

CCCCCCCCCCCCOS(=O)(=O)[O-].[Na+] [SDS, sodium dodecyl sulphate]
Viability (%) ([2]; +Irr, 0.1 μg/mL): 100.0% | Corrected Mean OD540 ([2]; +Irr, 0.1 μg/mL): 1.17 | Viability (%) ([2]; +Irr, 0.316 μg/mL): 99.1% | Corrected Mean OD540 ([2]; +Irr, 0.316 μg/mL): 1.16 | Viability (%) ([2]; +Irr, 1 μg/mL): 101.7% | Corrected Mean OD540 ([2]; +Irr, 1 μg/mL): 1.19 | Viability (%) ([2]; +Irr, 3.16 μg/mL): 100.0% | Corrected Mean OD540 ([2]; +Irr, 3.16 μg/mL): 1.17 | Viability (%) ([2]; +Irr, 10 μg/mL): 95.7% | Corrected Mean OD540 ([2]; +Irr, 10 μg/mL): 1.12 | Viability (%) ([2]; +Irr, 31.6 μg/mL): 18.8% | Corrected Mean OD540 ([2]; +Irr, 31.6 μg/mL): 0.22 | Viability (%) ([2]; +Irr, 100 μg/mL): 0.6% | Corrected Mean OD540 ([2]; +Irr, 100 μg/mL): 0.007 | Viability (%) ([2]; +Irr, 316 μg/mL): 0.5% | Corrected Mean OD540 ([2]; +Irr, 316 μg/mL): 0.006 | IC50 (50% inhibition of Neutral Red uptake), presence of irradiation ([2]; +Irr, 5 J/cm^2 UV-A): 21.65 µg/mL | Photo Irritation Factor (PIF) [2]: 1.14 | IC50 (50% inhibition of Neutral Red uptake), absence of irradiation ([2]; –Irr): 27.4 µg/mL | Viability (%) ([2]; –Irr, 0.1 μg/mL): 102.0% | Corrected Mean OD540 ([2]; –Irr, 0.1 μg/mL): 1.25 | Viability (%) ([2]; –Irr, 0.316 μg/mL): 99.6% | Corrected Mean OD540 ([2]; –Irr, 0.316 μg/mL): 1.22 | Viability (%) ([2]; –Irr, 1 μg/mL): 101.2% | Corrected Mean OD540 ([2]; –Irr, 1 μg/mL): 1.24 | Viability (%) ([2]; –Irr, 3.16 μg/mL): 101.2% | Corrected Mean OD540 ([2]; –Irr, 3.16 μg/mL): 1.24 | Viability (%) ([2]; –Irr, 10 μg/mL): 98.8% | Corrected Mean OD540 ([2]; –Irr, 10 μg/mL): 1.21 | Viability (%) ([2]; –Irr, 31.6 μg/mL): 26.1% | Corrected Mean OD540 ([2]; –Irr, 31.6 μg/mL): 0.32 | Viability (%) ([2]; –Irr, 100 μg/mL): 0.2% | Corrected Mean OD540 ([2]; –Irr, 100 μg/mL): 0.003 | Viability (%) ([2]; –Irr, 316 μg/mL): 0.04% | Corrected Mean OD540 ([2]; –Irr, 316 μg/mL): 0.0005 | Mean ± SD (OD570 corrected) [3]: .039 ± .005 | Cell Viability (%) ([3]; relative to phosphate buffered saline): 4.0%

Nc1ccc2cc3ccccc3cc2c1 [2-aminoanthracene, reference compound]
Revertant Colonies (With S9) ([4]; TA98, with S9, 1 μg/plate): 657 | Revertant Colonies (With S9) ([1]; TA100, with S9, 5 μg/plate): 363

O=[N+]([O-])c1ccc2c(c1)Cc1ccccc1-2 [2-nitrofluorene, reference compound]
Revertant Colonies (Without S9) ([4]; TA98, without S9, 10 μg/plate): 1962

c1ccc2cc3ccccc3cc2c1 [anthracene]
viability at 82 min, 0.01 μg/mL ([5]; +Irr): 98.1% | viability at 82 min, 0.0316 μg/mL ([5]; +Irr): 60.3% | viability at 82 min, 0.1 μg/mL ([5]; +Irr): 3.9% | viability at 82 min, 0.316 μg/mL ([5]; +Irr): 4.1% | viability at 82 min, 1 μg/mL ([5]; +Irr): 4.2% | viability at 82 min, 3.16 μg/mL ([5]; +Irr): 4.2% | viability at 82 min, 10 μg/mL ([5]; +Irr): 3.3% | viability at 82 min, 31.6 μg/mL ([5]; +Irr): 8.01% | viability at 82 min, 0.01 μg/mL ([5]; –Irr): 103% | viability at 82 min, 0.0316 μg/mL ([5]; –Irr): 102% | viability at 82 min, 0.1 μg/mL ([5]; –Irr): 102% | viability at 82 min, 0.316 μg/mL ([5]; –Irr): 101% | viability at 82 min, 1 μg/mL ([5]; –Irr): 100% | viability at 82 min, 3.16 μg/mL ([5]; –Irr): 101% | viability at 82 min, 10 μg/mL ([5]; –Irr): 101% | viability at 82 min, 31.6 μg/mL ([5]; –Irr): 103% | Corrected Mean OD540 ([2]; +Irr, 0.01 μg/mL): 1.09 | Corrected Mean OD540 ([2]; +Irr, 0.0316 μg/mL): 0.67 | Corrected Mean OD540 ([2]; +Irr, 0.1 μg/mL): 0.043 | Corrected Mean OD540 ([2]; +Irr, 0.316 μg/mL): 0.046 | Corrected Mean OD540 ([2]; +Irr, 1 μg/mL): 0.047 | Corrected Mean OD540 ([2]; +Irr, 3.16 μg/mL): 0.047 | Corrected Mean OD540 ([2]; +Irr, 10 μg/mL): 0.037 | Corrected Mean OD540 ([2]; +Irr, 31.6 μg/mL): 0.089 | IC50 ([2]; Mus musculus, BALB/c3T3, light or radiation study, read-out: IC50 (50% inhibition of Neutral Red uptake), presence of irradiation): 0.03 µg/mL | Photo Irritation Factor (PIF) [2]: > 31.6 | IC50 (50% inhibition of Neutral Red uptake), absence of irradiation ([2]; –Irr): no IC50 | Corrected Mean OD540 ([2]; –Irr, 0.01 μg/mL): 1.15 | Corrected Mean OD540 ([2]; –Irr, 0.0316 μg/mL): 1.14 | Corrected Mean OD540 ([2]; –Irr, 0.1 μg/mL): 1.14 | Corrected Mean OD540 ([2]; –Irr, 0.316 μg/mL): 1.13 | Corrected Mean OD540 ([2]; –Irr, 1 μg/mL): 1.12 | Corrected Mean OD540 ([2]; –Irr, 3.16 μg/mL): 1.13 | Corrected Mean OD540 ([2]; –Irr, 10 μg/mL): 1.13 | Corrected Mean OD540 ([2]; –Irr, 31.6 μg/mL): 1.15

Reference: paper PMC10916352, “Safety Evaluation of a Prototypical Diazirine-Based Covalent Crosslinker and Molecular Adhesive” (International Journal of Toxicology, 2023)
